Patent US8637237B2, “Methods, compositions, and systems for the identification of species-specific or developmental stage-specific insecticides” (The University of North Carolina at Greensboro, priority 2003, dated 2014)

Target: T1, EcRA/USP (Drosophila melanogaster, UniProt P34021)
T1 construct: The plasmid encodes a version of EcRA that includes 849 amino acids, and deletes the F domain; expressed in transfected cells; host or cells: CHO
T1 sequence (P34021 1-849 isoform P34021-2): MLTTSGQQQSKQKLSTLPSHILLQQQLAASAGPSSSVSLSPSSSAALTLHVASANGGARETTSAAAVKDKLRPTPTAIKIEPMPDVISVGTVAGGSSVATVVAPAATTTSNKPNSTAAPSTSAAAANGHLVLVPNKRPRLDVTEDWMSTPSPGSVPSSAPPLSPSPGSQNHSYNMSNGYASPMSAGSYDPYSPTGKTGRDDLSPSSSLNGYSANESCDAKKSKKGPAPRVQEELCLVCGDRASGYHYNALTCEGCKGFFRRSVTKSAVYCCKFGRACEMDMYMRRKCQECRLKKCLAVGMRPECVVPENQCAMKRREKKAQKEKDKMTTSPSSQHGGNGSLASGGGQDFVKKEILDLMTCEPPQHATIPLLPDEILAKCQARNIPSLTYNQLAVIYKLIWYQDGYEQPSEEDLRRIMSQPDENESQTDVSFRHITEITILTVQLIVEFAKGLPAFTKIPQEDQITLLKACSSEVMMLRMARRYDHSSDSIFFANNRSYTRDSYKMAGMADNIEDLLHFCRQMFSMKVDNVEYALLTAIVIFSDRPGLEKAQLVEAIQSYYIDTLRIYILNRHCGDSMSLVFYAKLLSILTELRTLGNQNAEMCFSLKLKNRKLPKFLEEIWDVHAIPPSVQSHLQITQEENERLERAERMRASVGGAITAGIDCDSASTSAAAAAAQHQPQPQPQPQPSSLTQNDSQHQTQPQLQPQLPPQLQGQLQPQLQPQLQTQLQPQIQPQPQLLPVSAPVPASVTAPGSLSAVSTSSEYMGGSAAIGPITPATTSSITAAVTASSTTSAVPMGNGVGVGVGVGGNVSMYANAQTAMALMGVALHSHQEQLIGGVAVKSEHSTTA
T1 sequence (O76202 192-472 partner): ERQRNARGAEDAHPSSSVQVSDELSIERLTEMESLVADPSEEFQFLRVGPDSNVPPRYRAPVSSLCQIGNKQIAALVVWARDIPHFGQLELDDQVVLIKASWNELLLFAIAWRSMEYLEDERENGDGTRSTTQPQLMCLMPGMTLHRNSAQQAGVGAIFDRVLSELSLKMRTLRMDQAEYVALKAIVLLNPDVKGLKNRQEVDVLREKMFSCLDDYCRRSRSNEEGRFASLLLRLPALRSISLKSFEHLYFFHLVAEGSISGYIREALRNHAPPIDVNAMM
Assay: EcRA isoform with USP (VP16CfUSP), (EcRE)5-ΔMTV-LUC in CHO cells
Format: cell-based
Protocol: These experiments employed a mammalian cell culture system using Chinese hamster ovary cells (CHO) to evaluate the transcriptional function of Drosophila melanogaster EcR and USP using methods described previously (U.S. Patent Application Publication No: 2005/0049230; Henrich et al, 2003). Cells were seeded in 6-well polypropylene culture plates (Falcon) with 10^5 cells per well on the day prior to transfection. Transfection was subsequently performed using either calcium phosphate (Kitareewan et al., 1996, Mol. Biol. Cell, 7:1153-1196) or a GenePorter reagent (Gene Therapy Systems, Inc; San Diego, Calif.) following manufacturer's protocols. Each well received 1.25 μg of (EcRE)5-ΔMTV-CAT (five copies of the hsp27 EcRE inserted into an mouse mammary tumor virus (MTV) promoter upstream of the chloramphenicol acetyltransferase (CAT) gene) or (EcRE)5-ΔMTV-LUC (the same promoter attached to firefly luciferase), 1.25 μg of pCH111 (SV40 early promoter linked to the β-galactosidase gene) to normalize CAT activity, and 0.25 μg of each expression plasmid (EcR, FXR, RXR, USP) that was tested. The cells were incubated with plasmid DNA for seven hours and then washed with 1×PBS. Muristerone A (murA; Alexis Biochemicals) or 20-hydroxyecdysone (20E; Sigma) dissolved in ethanol to a concentration of 10 mM was diluted as necessary to the final assay concentration (FAC) in 2 ml of fresh incubation medium that was then applied to the cells. Similarly, JHIII (Sigma) was dissolved in dimethyl sulfoxide (DMSO) to a concentration of […] and diluted into the incubation medium to its final assay concentration (20, 40, 80, 160 μM). […] A corresponding volume of ethanol and DMSO were added to control cells for all experiments. For all experiments, the cells were allowed to incubate with the medium for 24 hours before collection and cell lysates were prepared by described methods (Kitareewan et al., 1996). Both β-galactosidase and CAT reporter activity were measured based on previously used methods (Kitareewan et al, 1996). Luciferase assays using luciferrin followed the specifications of the manufacturer.
Transcriptional activity, measured as ^14C-chloramphenicol counts (for measuring CAT activity) or relative luciferase activity (RLU) was quantified for each cell lysate. The counts were then normalized by adjusting for differences in β-galactosidase activity, since β-galactosidase expression is controlled by a constitutive promoter and provides an estimate of cell mass. Data were normalized as fold-induction based on differences in reporter gene activity between hormonally treated and control cells.

## CC(C)(O)CC[C@@H](O)[C@](C)(O)[C@H]1CC[C@@]2(O)C3=CC(=O)[C@@H]4C[C@@H](O)[C@@H](O)C[C@]4(C)[C@H]3CC[C@]12C [20E, 20-hydroxyecdysone]
EcRA + VP16CfUSP, 10 μM 20E
  transcriptional response to 20E: consistent and discernible transcriptional response
EcRA/USP, 10 μM 20E
  20E (inducibility): + ((+) designates a change in transcriptional level that exceeds 2.5-fold)

## COC(=O)/C=C(\C)CC/C=C(\C)CC[C@H]1OC1(C)C [JHIII, juvenile hormone III]
EcRA + VP16CfUSP, 80 μM JHIII with 0.1 μM murA
  potentiation of murA response by JHIII: potentiated
EcRA/USP, 0.1 μM murA + 80 μM JHIII
  MurA + JHIII (JHIII potentiation): + ((+) indicates observed potentiation that exceeds 2-fold above the levels observed with ecdysteroid alone)

## CC(C)CC[C@@H](O)[C@](C)(O)[C@H]1CC[C@@]2(O)C3=CC(=O)[C@]4(O)C[C@@H](O)[C@@H](O)C[C@]4(C)[C@H]3[C@H](O)C[C@]12C [murA, muristerone A]
EcRA + VP16CfUSP, 1 μM murA
  induction by murA: 30-40 fold
EcRA/USP, 0.1 μM murA
  MurA (inducibility): + ((+) designates a change in transcriptional level that exceeds 2.5-fold)
